Results reported in a melting point compilation (Tetko et al.).

| Compound | melting point [°C] |
| --- | --- |
| O=C(O)C1CCC(c2ccc(Cl)cc2)CC1 (configuration not stated) | 250 to 255 |
| Cc1cc2c(o1)-c1c(oc3ccc(Br)cc13)CCC2(C)c1ccccc1 (configuration not stated) | 127 |
| CCC1COC(Cn2cncn2)(c2ccc(Cl)cc2Cl)O1 (configuration not stated) | 84 |
| O=C(C1=NN(c2ccccc2)C2C(=O)N(c3ccc(F)cc3)C(=O)C12)c1ccccc1 (configuration not stated) | 211 |
| CCOC(=O)c1c(C=O)c(C)n(C2CC2)c1C | 75 to 80 |
| Oc1cc2c(cc1O)Cc1cc(O)c(O)cc1Cc1cc(O)c(O)cc1C2 | 287 to 289 |
| CC1=C(O)C(=O)C2OC2C1=O (configuration not stated) | 127 |
| Cn1sc(Cl)cc1=O | 52 |
| O=C(CCl)c1ccc(C(=O)C(Cl)Cl)cc1 | 147 |
| C[C@@]12CCC=C1[C@@H]1CC[C@H]3CC(=O)CC[C@]3(C)[C@H]1CC2 | 115 to 117 |
| CC(=O)N=c1sc(S(N)(=O)=O)nn1C | 214 |
| CC1(c2ccccc2)C(=O)NC(=O)NC1=O | 224 |
| Cc1cccc2c1CC2=O | 56 |
| O=[N+]([O-])c1cc(-c2ccccc2)ccc1O | 67 |
| Cc1ccc2ccc3ccccc3c2c1 | 65 |
| OCc1ccc(N2CCOCC2)nc1 | 74 to 76 |
| CCCCCCCC(=O)OCCCCC | -34.8 |
| COc1ccc(-c2ccc(S(=O)(=O)N3CCCC3C(=O)O)cc2)cc1 (configuration not stated) | 154 |
| O=C(CCl)c1ccc(F)cc1 | 48 |
| O=C(c1ccccc1)C1CC1 | 7 to 9 |
| O=Cc1ccccn1 | -21 |
| CC(C)=CCC1C(=O)N(c2ccccc2)N(c2ccccc2)C1=O | 156 |
| CC(=O)OCC(=O)C1(O)CCC2C3CC(C)C4=CC(=O)C=CC4(C)C3C(O)CC21C (configuration not stated) | 206 |

| Compound | melting point [°C] |
| --- | --- |
| Cc1c(S(=O)(=O)Cl)sc2ccc(Cl)cc12 | 153 |
| CC(C)Oc1cc(-n2nc(C(C)(C)C)oc2=O)c(Cl)cc1Cl | 90 |
| COC1=CC(C)C2CC3OC(=O)CC4C(C)=C(OC)C(=O)C(C2(C)C1=O)C34C (configuration not stated) | 222 |
| Nc1cccc(N2CCOCC2)c1 | 118 to 119 |
| CCOC(=O)C(Cc1c[nH]c2ccccc12)NC(C)=O (configuration not stated) | 106 |
| Nc1ccc(C=O)cc1 | 71.5 |
| COc1ccc([N+](=O)[O-])c(C(=O)O)c1 | 133 |
| O=C(O)c1cccc(Cn2cncn2)c1 | 209 to 210 |
| Nc1ncnc2c1ncn2C1CCC(CO)O1 (configuration not stated) | 185 |
| CC1(C)C(C=C2CCSC2=O)C1C(=O)OCc1coc(Cc2ccccc2)c1 (configuration not stated) | 31 |
| COC(=O)C1Cc2ccccc2C(=O)C1C(=O)OC (configuration not stated) | 88 |
| COc1ccc(C(=O)O)c(Cl)c1OC | 193 to 196 |
| FC(F)(F)c1nc2ccccc2[nH]1 | 210 |
| Clc1ccc2c(c1)c1cc(Cl)ccc1n2CC1CO1 (configuration not stated) | 143 to 144 |
| COCc1c(C(=O)OC(C)C)ncc2[nH]c3ccc(OCc4ccccc4)cc3c12 | 150 |
| Nc1nc(O)nc2[nH]ncc12 | 320 |
| CCCCCCCCCCCCCCCBr | 19 |
| COC(=O)[C@@H](C)Oc1ccc(O)cc1 | 64 to 67 |
| CCOC(=O)c1sc2sc(C#N)c(N)c2c1N | 260 |
| CSCCC(NC(=O)c1ccccc1)C(=O)O (racemic) | 150 to 154 |
| Clc1cccc2c(C#Cc3ccccc3)c3ccccc3c(C#Cc3ccccc3)c12 | 199 to 204 |
| CC1OC(=O)C2CC3CCCCC3C(C=CC3CCCC(C)N3C)C12 (single isomer, unassigned; (+)) | 130 to 136 |
| CC(C)=CCCC=C(C)C | -74.4 |

| Compound | melting point [°C] |
| --- | --- |
| Fc1nc(F)nc(F)n1 | -38 |
| N#CC1=C(N)Oc2c(c(C(F)(F)F)nn2-c2ccccc2)C1c1ccc(Cl)cc1 (configuration not stated) | 221 |
| Cc1ncc([N+](=O)[O-])n1CC(C)O (configuration not stated) | 76 |
| CCOC(=O)c1c(C)[nH]c2cc3[nH]c(C)c(C(=O)OCC)c3cc12 | 342 |
| COC(=O)c1sc(SC)c(S(=O)(=O)C(C)C)c1I | 193 to 195 |
| OCC(O)COc1ccccc1 (configuration not stated) | 62.8 |
| O=C1C2CC(CN3CCCCC23)C2CCCCN12 (configuration not stated) | 111 |
| CCCCCCCCCCCCCCCCI | 22 |
| O=C=Nc1ccc(I)cc1 | 45 |
| CC1CCC(C)(C(=O)CN2C(=O)c3ccccc3C2=O)C1(C)C (configuration not stated) | 99 |
| Cc1cc(C)c(CO)c(C)c1 | 87 |
| CC(=O)OCC1OC(n2ncc(=O)[nH]c2=O)C(OC(C)=O)C1OC(C)=O (configuration not stated) | 99 to 101 |
| CCCCCCCCCc1ccccc1 | -24 |
| OC1CSC(O)CS1 (configuration not stated) | 108 to 145 |
| COC(=O)C(Cl)C(C)=O (configuration not stated) | -33 |
| CSc1c(C#N)c(N)nc2c(/N=N/c3cccc(C(F)(F)F)c3)c(N)nn12 | 293 |
| CCC(C)c1cc([N+](=O)[O-])cc([N+](=O)[O-])c1OC(C)=O (configuration not stated) | 26 |
| CCOC(=O)c1sc(SC)c(S(C)(=O)=O)c1N | 111 to 113 |
| COC(=O)C1CC(=O)C(C(=O)OC)CC1=O (configuration not stated) | 154 to 157 |
| Brc1ccc(Sc2ccc(Br)cc2)cc1 | 115 |
| Cc1cc(N)c2ncccc2c1 | 73 |
| Cc1[nH]c2nc(C(F)(F)F)nn2c(=O)c1Cl | 215 |
| ClCc1cc2ccccc2nc1Cl | 114 to 115 |

| Compound | melting point [°C] |
| --- | --- |
| O=CC(O)CO (configuration not stated) | 145 |
| Clc1nc2ccccc2[nH]1 | 200 |
| CC12CCC(=O)C=C1CCC1C2CCC2(C)C1CCC2(O)C(=O)CO (configuration not stated) | 215 |
| Nc1cccc2cc[nH]c12 | 91 |
| S=c1oc(-c2cc3ccccc3o2)nn1CCl | 300 |
| O=C(O)c1ccc2cc[nH]c2c1 | 248 to 254 |
| N#Cc1ccc(O)c(Br)c1 | 158 |
| Sc1ccc2ccccc2c1 | 81 |
| Brc1ccc(Br)nn1 | 116 to 117 |
| NCCCC(O)(P(=O)(O)O)P(=O)(O)O | 234 |
| NC(=NO)C(N)=NO | 200 to 204 |
| Cc1c2ccccc2c(C)c2ccccc12 | 183 |
| CCOC(=O)C(C#N)=C(S)Nc1ccccc1 | 118 to 119 |
| O=C(Cl)CCCCl | -47 |
| COc1ccc(CCN2CCc3c([nH]c4ccccc34)C2=O)cc1OC | 206 to 207 |
| Cc1ccc2[nH]c(C)c(C)c2c1 | 122 |
| O=C(O)c1ccccc1N/N=C1/C(=O)N(c2ccccc2)N=C1C(F)(F)F | 139 |
| Nc1nc(NC2CC2)c2ncn(C3C=CC(CO)C3)c2n1 (configuration not stated) | 165 |
| Cc1ccc2cc(N(C)C)ccc2n1 | 101 |
| NS(=O)(=O)c1ccc2ccccc2c1 | 219 |
| COC(=O)c1ccccc1NC(C)=O | 97 to 101 |
| CC(C)(C)c1ccc(Oc2ccc([N+](=O)[O-])cc2C=O)cc1 | 134 to 136 |
| Cc1nc(-c2ccc(CO)cc2)no1 | 131 to 132 |
